Measurements taken from paper PMC10879502, “Linking ATP and allosteric sites to achieve superadditive binding with bivalent EGFR kinase inhibitors” (Communications Chemistry, 2024).
Values joined by “and” are separate entries in the source; they are usually repeats but may differ in a detail not shown here. Identical values can stand only once. Like-named read-outs stand apart in the source and are kept apart here.

Legend:
[1] = molecular target: T1, EGFR L858R/T790M/C797S (LRTMCS) kinase domain (Homo sapiens, UniProt P00533, C797S/L858R/T790M); assay: HTRF KinEASE-TK kinase activity assay; format: biochemical
T1 construct: The EGFR kinase domain (residues 696–1022) was cloned into pTriEx; 6xHis (N, cleaved yes); GST (N, cleaved yes); made in house; host or cells: SF9 insect cells, baculovirus

Ba/F3 cells, L858R EGFR = assay: Ba/F3 resazurin antiproliferative assay; format: cell-based; conditions: Mus musculus, BaF3, 72 h, Ba/F3, 72 h; read-out: EGFR EC50, LR
Method: (§1) H1975 and HCC827 cells were obtained from the lab of Dr. Pasi Jänne (Dana-Farber Cancer Institute, 2022) cultured at 37 °C in RPMI 1640 media (Corning, 1004-CV) supplemented with 10% fetal bovine serum (Tissue Culture Biologicals, 35-010-CV) and 1% penicillin and streptomycin (P/S, Corning, 30-002-CI) and seeded overnight in a 96-well plate at a density of 60000 cells/mL. Cells were dosed with inhibitors to a final DMSO 0.5% in triplicate for 37 °C for 72 h. Cellular inhibition of growth was assessed by MTT viability assay according to the manufactures protocol (OZ Biosciences). Parental Ba/F3 cells was a generous gift from the laboratory of Dr. David Weinstock (in 2014), Dr. Pasi Jänne (2020) both of the Dana-Farber Cancer Institute and was used to generate the wildtype EGFR, L858R, and L858R/T790M EGFR mutant Ba/F3 cells[52],[67]. Ba/F3 cells were all cultured in RPMI1640 media with 10% fetal bovine serum and 1% penicillin and streptomycin. The Ba/F3 cell lines were tested negative for Mycoplasma using Mycoplasma Plus PCR Primer Set (Agilent) and were passaged and/or used for no longer than 4 weeks for all experiments. Assay reagents were purchased from MilliporeSigma (Cat# R7017-5G). Ba/F3 cells were plated and treated with increasing concentrations of inhibitors in triplicate for 72 h. Compounds were dispensed using the Tecan D300e Digital Dispenser. […] All experiments were repeated at least 3 times and values were reported as an average with standard deviation.

[2] = tested on: Ba/F3 cells, L858R/T790M EGFR; assay: Ba/F3 resazurin antiproliferative assay; format: cell-based; conditions: Mus musculus, BaF3; Ba/F3, 72 h; read-out: EGFR EC50, LR/TM
Method: as §1

[3] = tested on: Ba/F3 cells, LR/TM/CS EGFR; assay: Ba/F3 resazurin antiproliferative assay; format: cell-based; conditions: Mus musculus, BaF3; Ba/F3, 72 h
Method: as §1

[4] = tested on: Ba/F3 cells, wildtype EGFR; assay: Ba/F3 resazurin antiproliferative assay; format: cell-based; conditions: Mus musculus, BaF3; Ba/F3, 72 h; read-out: EGFR EC50, wt
Method: as §1

[5] = tested on: EGFR phosphorylation (pY1068) in H1975 cells; assay: Western blot; format: cell-based, human
Method: H1975, H3255, H3255GR and HCC827 lung adenocarcinoma cells (obtained from Dr. Pasi Jänne in Dana-Farber Cancer Institute, 2022) were cultured in RPMI 1640 media (Corning, 1004-CV) supplemented with 10% FBS (Tissue Culture Biologicals, 35-010-CV) and 1% penicillin-streptomycin (P/S, Corning, 30-002-CI). All cell lines were tested negative for Mycoplasma using Myco-Sniff-Rapid™ Mycoplasma Luciferase Detection Kit Plus PCR Primer Set (MP biomedicals, 0930504-CF) and were passaged and/or used for no longer than 4 weeks for all experiments H1975 and HCC-827 cells were seeded in 6-well plates with 400,000 cells per well and incubated overnight. H3255 and H3255GR cells were seeded in 12-well plates with 200,000 cells per well and were grown to confluency after 48 h. Culture medium was removed, cells washed with PBS, and lysed with lysis buffer containing 5 M NaCl, 1 M TRIS pH 8.0, 10% SDS, 10% Triton X-100 and a tablet of protease and phosphatase inhibitor. Protein lysate concentration was analyzed using Pierce BCA kit (ThermoFisher, 23225). Protein samples (10 µg) were resolved on hand-cast Criterion Tris-HCl protein gels. Primary antibodies used; phospho-EGFR (Tyr1068; #2234, 1:1,000), EGFR (#4267; 1:1,000), phospho-AKT (Ser473; #4060, 1:1,000), AKT (#9272, 1:1,000), phospho-ERK1/2 (Thr202/Tyr204; #4370, 1:1,000), and ERK1/2 (#4695, 1:1,000) antibodies; were purchased from Cell Signaling Technology. Secondary Goat anti-rabbit IgG starbright blue 700 (Biorad, 64484700) and Anti-tubulin hFAB Rhodamine Tubulin (Bio-Rad, 64512248). Western blots were visualized with the ChemiDoc MP imager (Bio-Rad) utilizing the Image Lab Touch Software (version 2.4.0.03). All Western blot images are representatives of at least 3 independent replicate experiments.

[6] = molecular target: T2, ABL1(F317I)-phosphorylated (Homo sapiens, UniProt P00519, F317I); assay: KINOMEscan; format: binding; conditions: 1 μM
T2 construct: purchased Eurofins DiscoverX Corporation

[7] = molecular target: T3, ABL1(F317L)-nonphosphorylated (Homo sapiens, UniProt P00519, F317L); assay: KINOMEscan; format: binding; conditions: 1 μM
T3 construct: purchased Eurofins DiscoverX Corporation

CSNK2A2 = molecular target: T4, CSNK2A2 (Homo sapiens, UniProt P19784); assay: KINOMEscan; format: binding; conditions: 1 μM
T4 construct: purchased Eurofins DiscoverX Corporation

EGFR(L858R+T790M) = EGFR(L858R+T790M) (Homo sapiens, UniProt P00533, L858R/T790M); assay: KINOMEscan; format: binding; conditions: 1 μM
FAK = FAK (Homo sapiens, UniProt Q05397); assay: KINOMEscan; format: binding; conditions: 1 μM
HASPIN = molecular target: T5, HASPIN (Homo sapiens, UniProt Q8TF76); assay: KINOMEscan; format: binding; conditions: 1 μM
T5 construct: purchased Eurofins DiscoverX Corporation

IKK-beta = molecular target: T6, IKK-beta (Homo sapiens, UniProt O14920); assay: KINOMEscan; format: binding; conditions: 1 μM
T6 construct: purchased Eurofins DiscoverX (KINOMEscan)

MLK1 = molecular target: T7, MLK1 (Homo sapiens, UniProt P80192); assay: KINOMEscan; format: binding; conditions: 1 μM
T7 construct: purchased Eurofins DiscoverX Corporation

PAK3 = PAK3 (Homo sapiens, UniProt O75914); assay: KINOMEscan; format: binding; conditions: 1 μM
PIK3CA(E545A) = PIK3CA(E545A) (Homo sapiens, UniProt P42336, E545A); assay: KINOMEscan; format: binding; conditions: 1 μM
[8] = enzyme 0.02 nM, ATP 100 µM, read-out: Biochemical EGFR IC50, LRTMCS

T6 sequence (O14920 whole entry): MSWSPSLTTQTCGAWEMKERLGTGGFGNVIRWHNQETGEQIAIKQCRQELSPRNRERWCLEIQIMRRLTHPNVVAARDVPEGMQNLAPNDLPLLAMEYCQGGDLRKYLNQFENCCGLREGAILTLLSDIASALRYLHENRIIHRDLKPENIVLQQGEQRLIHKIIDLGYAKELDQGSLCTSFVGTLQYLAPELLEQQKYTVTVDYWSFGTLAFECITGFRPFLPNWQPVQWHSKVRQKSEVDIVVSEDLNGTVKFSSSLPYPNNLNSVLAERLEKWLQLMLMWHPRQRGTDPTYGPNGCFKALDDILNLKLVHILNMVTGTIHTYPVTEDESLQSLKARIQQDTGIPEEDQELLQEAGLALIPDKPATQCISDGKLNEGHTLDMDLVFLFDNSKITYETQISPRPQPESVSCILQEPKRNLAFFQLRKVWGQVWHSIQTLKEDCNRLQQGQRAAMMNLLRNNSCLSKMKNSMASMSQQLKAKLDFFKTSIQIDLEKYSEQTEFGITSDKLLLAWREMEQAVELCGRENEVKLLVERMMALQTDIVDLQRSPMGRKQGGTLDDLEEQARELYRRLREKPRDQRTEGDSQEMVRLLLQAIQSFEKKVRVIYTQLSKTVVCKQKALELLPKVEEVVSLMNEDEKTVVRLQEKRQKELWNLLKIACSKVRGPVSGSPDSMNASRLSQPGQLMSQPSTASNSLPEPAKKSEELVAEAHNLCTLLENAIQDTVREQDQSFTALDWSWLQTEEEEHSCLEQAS
Chain of FAK (Q05397 whole entry): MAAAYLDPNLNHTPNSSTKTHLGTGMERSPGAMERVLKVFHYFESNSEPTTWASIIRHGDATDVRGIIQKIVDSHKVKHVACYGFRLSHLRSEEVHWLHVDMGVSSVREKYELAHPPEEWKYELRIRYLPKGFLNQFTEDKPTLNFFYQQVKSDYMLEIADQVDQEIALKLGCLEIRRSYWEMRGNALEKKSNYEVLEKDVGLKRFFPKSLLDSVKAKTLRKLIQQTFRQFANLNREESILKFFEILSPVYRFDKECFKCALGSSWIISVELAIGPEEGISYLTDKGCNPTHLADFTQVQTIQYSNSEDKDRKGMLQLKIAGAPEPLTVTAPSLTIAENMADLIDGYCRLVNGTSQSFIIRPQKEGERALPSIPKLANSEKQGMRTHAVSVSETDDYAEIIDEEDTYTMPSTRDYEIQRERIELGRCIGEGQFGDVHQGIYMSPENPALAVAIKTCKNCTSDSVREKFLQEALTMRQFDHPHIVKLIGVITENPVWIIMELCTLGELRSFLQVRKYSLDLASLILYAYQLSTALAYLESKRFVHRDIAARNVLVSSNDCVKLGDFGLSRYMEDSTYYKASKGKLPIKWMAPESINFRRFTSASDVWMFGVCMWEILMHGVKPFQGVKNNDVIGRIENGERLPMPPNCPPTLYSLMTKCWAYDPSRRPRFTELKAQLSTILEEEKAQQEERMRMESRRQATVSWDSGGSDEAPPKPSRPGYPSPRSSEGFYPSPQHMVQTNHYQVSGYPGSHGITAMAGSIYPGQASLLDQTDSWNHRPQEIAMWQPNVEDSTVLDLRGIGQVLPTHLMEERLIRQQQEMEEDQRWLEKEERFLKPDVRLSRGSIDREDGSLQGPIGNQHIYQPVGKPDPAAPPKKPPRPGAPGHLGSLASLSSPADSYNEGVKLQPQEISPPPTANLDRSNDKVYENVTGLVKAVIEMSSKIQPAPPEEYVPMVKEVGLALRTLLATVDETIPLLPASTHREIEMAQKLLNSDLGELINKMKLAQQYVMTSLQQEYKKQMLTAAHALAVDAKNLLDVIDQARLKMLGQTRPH
T5 sequence (Q8TF76 whole entry): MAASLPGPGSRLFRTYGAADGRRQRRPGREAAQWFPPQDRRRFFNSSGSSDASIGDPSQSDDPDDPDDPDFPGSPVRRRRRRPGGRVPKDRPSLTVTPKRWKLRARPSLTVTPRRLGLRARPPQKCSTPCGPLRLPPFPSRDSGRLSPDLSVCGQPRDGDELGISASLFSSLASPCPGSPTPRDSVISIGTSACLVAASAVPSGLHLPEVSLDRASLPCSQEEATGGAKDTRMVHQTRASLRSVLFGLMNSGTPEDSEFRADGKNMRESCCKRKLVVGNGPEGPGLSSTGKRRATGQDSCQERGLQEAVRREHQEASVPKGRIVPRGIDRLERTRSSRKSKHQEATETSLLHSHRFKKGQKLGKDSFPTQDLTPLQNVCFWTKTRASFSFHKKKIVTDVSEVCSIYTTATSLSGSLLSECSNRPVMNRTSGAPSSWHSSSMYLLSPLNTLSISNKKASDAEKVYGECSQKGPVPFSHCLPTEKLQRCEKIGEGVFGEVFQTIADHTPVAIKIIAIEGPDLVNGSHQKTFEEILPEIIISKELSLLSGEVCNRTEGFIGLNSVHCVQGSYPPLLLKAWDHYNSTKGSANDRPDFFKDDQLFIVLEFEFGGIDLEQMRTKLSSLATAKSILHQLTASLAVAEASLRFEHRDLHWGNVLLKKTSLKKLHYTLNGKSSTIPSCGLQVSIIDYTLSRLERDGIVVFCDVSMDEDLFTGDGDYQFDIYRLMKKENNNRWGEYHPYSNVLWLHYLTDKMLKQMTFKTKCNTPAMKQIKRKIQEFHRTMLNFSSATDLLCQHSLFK
T2 sequence (P00519 whole entry F317I): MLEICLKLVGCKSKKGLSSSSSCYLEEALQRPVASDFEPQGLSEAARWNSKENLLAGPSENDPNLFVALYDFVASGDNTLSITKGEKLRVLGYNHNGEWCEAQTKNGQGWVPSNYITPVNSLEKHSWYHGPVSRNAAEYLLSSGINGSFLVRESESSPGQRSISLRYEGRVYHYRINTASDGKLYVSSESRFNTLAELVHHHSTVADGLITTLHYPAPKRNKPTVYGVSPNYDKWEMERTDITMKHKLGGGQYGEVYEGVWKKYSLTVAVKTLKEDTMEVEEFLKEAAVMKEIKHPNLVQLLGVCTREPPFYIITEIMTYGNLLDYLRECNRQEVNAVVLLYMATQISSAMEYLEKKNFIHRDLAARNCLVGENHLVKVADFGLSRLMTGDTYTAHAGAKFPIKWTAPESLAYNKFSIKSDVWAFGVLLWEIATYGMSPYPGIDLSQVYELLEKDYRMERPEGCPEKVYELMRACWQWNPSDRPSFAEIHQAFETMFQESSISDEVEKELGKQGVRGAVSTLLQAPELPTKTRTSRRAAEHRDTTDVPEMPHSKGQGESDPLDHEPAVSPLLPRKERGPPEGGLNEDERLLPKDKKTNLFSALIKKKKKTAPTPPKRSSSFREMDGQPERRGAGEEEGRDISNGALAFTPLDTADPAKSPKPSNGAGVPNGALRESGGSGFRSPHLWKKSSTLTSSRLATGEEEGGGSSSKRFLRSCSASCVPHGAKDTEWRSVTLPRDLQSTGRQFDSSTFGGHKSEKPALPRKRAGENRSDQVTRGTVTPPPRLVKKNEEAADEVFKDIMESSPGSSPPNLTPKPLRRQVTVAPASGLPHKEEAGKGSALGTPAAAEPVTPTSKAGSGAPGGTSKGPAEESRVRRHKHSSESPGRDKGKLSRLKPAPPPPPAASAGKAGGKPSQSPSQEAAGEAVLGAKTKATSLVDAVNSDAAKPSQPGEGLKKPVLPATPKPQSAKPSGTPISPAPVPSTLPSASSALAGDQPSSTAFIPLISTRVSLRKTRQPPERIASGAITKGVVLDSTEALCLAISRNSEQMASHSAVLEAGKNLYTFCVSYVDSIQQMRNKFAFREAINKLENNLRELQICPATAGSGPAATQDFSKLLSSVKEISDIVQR
T4 sequence (P19784 whole entry): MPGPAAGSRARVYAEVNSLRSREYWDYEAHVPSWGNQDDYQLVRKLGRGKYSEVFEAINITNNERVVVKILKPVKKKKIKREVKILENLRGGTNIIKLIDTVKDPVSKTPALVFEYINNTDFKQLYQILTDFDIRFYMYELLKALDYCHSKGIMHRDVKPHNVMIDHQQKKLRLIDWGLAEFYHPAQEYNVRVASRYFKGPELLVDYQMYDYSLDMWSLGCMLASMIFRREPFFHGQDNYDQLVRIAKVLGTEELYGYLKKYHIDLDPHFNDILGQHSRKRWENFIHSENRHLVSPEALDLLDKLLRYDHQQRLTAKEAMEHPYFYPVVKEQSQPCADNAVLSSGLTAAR
Chain of PAK3 (O75914 whole entry): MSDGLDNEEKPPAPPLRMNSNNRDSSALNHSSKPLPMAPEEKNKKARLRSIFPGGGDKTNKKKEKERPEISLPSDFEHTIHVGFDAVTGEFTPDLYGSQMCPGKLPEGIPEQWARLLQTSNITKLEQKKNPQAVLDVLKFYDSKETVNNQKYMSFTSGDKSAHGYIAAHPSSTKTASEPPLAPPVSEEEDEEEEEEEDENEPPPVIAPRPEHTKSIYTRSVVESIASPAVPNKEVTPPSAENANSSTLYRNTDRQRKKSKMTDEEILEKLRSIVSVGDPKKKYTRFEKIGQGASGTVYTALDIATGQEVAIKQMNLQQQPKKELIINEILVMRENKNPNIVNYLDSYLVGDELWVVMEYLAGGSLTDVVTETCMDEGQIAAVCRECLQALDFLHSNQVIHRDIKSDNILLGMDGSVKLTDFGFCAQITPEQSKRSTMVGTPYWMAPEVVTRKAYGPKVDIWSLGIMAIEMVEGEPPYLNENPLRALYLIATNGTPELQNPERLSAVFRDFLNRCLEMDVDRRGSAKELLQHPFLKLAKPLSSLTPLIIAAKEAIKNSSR
T3 sequence (P00519 whole entry F317L): as the sequence (P00519 whole entry F317I) above, with I317L counted along it

With `CSc1nc(-c2cccc(NC(=O)c3cccc4c3NC(=O)c3ccccc3N4)c2)c(-c2ccnc(NC(C)=O)c2)[nH]1` [Compound 2] the activity ([1]; LRTMCS, [Inhibitor] 1.3e-5 nM, read-out: percent inhibition) was 93.5% and 92.2% and 100%, the activity ([1]; LRTMCS, [Inhibitor] 3.18e-5 nM, read-out: percent inhibition) was 90.3% (2×) and 95.9% and the activity ([1]; LRTMCS, [Inhibitor] 7.78e-5 nM, read-out: percent inhibition) was 71% and 67.2% and 70.8%. The activity at 190.4 fM ([1]; LRTMCS, [Inhibitor] 0.000190441 nM, read-out: percent inhibition) was 39.1%, the activity at 466 fM ([1]; LRTMCS, [Inhibitor] 0.000465979 nM, read-out: percent inhibition) was 22.7% and the activity at 1.14 pM ([1]; LRTMCS, [Inhibitor] 0.00114018 nM, read-out: percent inhibition) was 13.5%. It also gave an activity at 2.79 pM ([1]; LRTMCS, [Inhibitor] 0.00278983 nM, read-out: percent inhibition) of 8.55%, an activity at 6.826 pM ([1]; LRTMCS, [Inhibitor] 0.00682626 nM, read-out: percent inhibition) of 4.28% and an activity at 16.7 pM ([1]; LRTMCS, [Inhibitor] 0.0167028 nM, read-out: percent inhibition) of 1.88%. For the same molecule, the IC50 [1, 8] was 0.064 ± 0.004 nM, the IC50 ([1]; read-out: IC50, LRTMCS) was 0.051 to 0.064 nM and the EC50 (Ba/F3 cells, L858R EGFR) was 5300 nM. The EC50 [2] was over 10000 nM, the EC50 [3] was 6500 nM and the EC50 [4] was 5100 nM. For the same molecule, the “suppression of EGFR phosphorylation” value ([5]; H1975, 6 h) was “also effective in H1975 cells, however to a lesser extent than 4”.
In the case of `C=CC(=O)Nc1ccc(OC)c(Nc2cc(-c3[nH]c(CC)nc3-c3cccc(NC(=O)c4cccc5c4NC(=O)c4ccccc4N5)c3)ccn2)c1` [Compound 4], the IC50 [1, 8] is reported as 1.8 ± 0.3 nM, the “IC50 improvement over orthosteric-only 7, LRTMCS” value ([1]; reversible inhibition) is reported as 100 fold and the EC50 (Ba/F3 cells, L858R EGFR) is reported as 220 nM. For the same molecule, the EC50 [2] was 770 nM, the EC50 [3] was over 10000 nM and the EC50 [4] was 950 nM. The “concentration suppressing LRTM phosphorylation (pY1068), pERK and pAKT” value ([5]; H1975, dosed for 6 h) was “below 1 µM”, the POC [6] was 84% of control and the POC [7] was 37% of control. The POC (CSNK2A2) was 58% of control, the POC (EGFR(L858R+T790M)) was 8.3% of control and the POC (FAK) was 99% of control. The POC (HASPIN) was 100% of control, the POC (IKK-beta) was 88% of control and the POC (MLK1) was 86% of control. For the same molecule, the POC (PAK3) was 70% of control and the POC (PIK3CA(E545A)) was 100% of control.
